Values of other authors in patent US20080176908A1, “Method of using squalene monooxygenase inhibitors to treat acne” (priority 2007, published 2008).

Conditions: compared with 2.5% hydrocortisone; test details not given

**Q.** For Cc1cc(C2CCCCC2)n(O)c(=O)c1 [Ciclopirox, 6-cylcohexyl-1-hydroxy-4-methyl-pyridin-2-one], which anti-inflammatory ability is on record?
**A.** greater anti-inflammatory ability than 2.5% hydrocortisone

**Q.** Which anti-inflammatory ability does the source give for CN(C/C=C/c1ccccc1)Cc1cccc2ccccc12 [naftifine, (E)-N-cinnamyl-N-methyl-1-naphthalenemethylamine] here?
**A.** greater anti-inflammatory ability than 2.5% hydrocortisone

**Q.** Which anti-inflammatory ability does the source give for CN(CC=CC#CC(C)(C)C)Cc1cccc2ccccc12 [terbinafine, N,6,6-trimethyl-N-(naphthalene-1-ylmethyl)hept-2-en-4-yn-1-amine] here?
**A.** greater anti-inflammatory ability than 2.5% hydrocortisone
